Literature values as cited in patent US11938211B2, “Process for coloring keratinous material comprising the use of an organosilicon compound, an effect pigment, a further coloring compound and a film-forming polymer I” (Henkel AG & Co. KGaA, priority 2019, dated 2024).

Settings: 25° C.

| Structure (SMILES) | solubility in water | solubility in water (in words) |
| --- | --- | --- |
| CCN(Cc1cccc(S(=O)(=O)[O-])c1)c1ccc(C(=C2C=CC(=[N+](CC)Cc3cccc(S(=O)(=O)[O-])c3)C=C2)c2ccccc2S(=O)(=O)[O-])cc1.[Na+].[Na+] [Acid Blue 9] | more than 20 % by weight |  |
| O=S(=O)([O-])c1ccc(N=Nc2c(O)ccc3ccccc23)cc1.[Na+] [Acid Orange 7, sodium salt of 4-[(2-hydroxy-1-naphthyl)azo]benzene sulphonate] | more than 7 g/L |  |
| Nc1cc(S(=O)(=O)[O-])cc2cc(S(=O)(=O)[O-])c(N=Nc3ccccc3)c(O)c12.[Na+].[Na+] [Acid Red 33, disodium salt of 5-amino-4-hydroxy-3-(phenylazo)-naphthalene-2,7-disulphonate] | 2500 µg/mL |  |
| O=C([O-])c1c(Cl)c(Cl)c(Cl)c(Cl)c1-c1c2c(Br)cc(=O)c(Br)c-2oc2c(Br)c(O)cc(Br)c12.O=C([O-])c1c(Cl)c(Cl)c(Cl)c(Cl)c1-c1c2c(Br)cc(=O)c(Br)c-2oc2c(Br)c(O)cc(Br)c12.[Na+].[Na+] [Acid Red 92, disodium salt of 3,4,5,6-tetrachloro-2-(1,4,5,8-tetrabromo-6-hydroxy-3-oxoxanthen-9-yl)benzoic acid] | greater than 10 g/L |  |
| O=C([O-])C1=NN(c2ccc(S(=O)(=O)[O-])cc2)C(=O)C1N=Nc1ccc(S(=O)(=O)[O-])cc1.[Na+].[Na+].[Na+] (centres unmarked) [Acid Yellow 23, trisodium salt of 4,5-dihydro-5-oxo-1-(4-sulfophenyl)-4-((4-sulfophenyl)azo)-1H-pyrazole-3-carboxylic acid] |  | highly soluble |
